# Paper PMC8950868, “Identifying Human PTP1B Enzyme Inhibitors from Marine Natural Products: Perspectives for Developing of Novel Insulin-Mimetic Drugs” (Pharmaceuticals, 2022)
# Experiments:
# [1] = target: T1, human recombinant AR (Homo sapiens, UniProt P15121); experiment: AR enzymatic assay (NADPH oxidation, L-idose substrate); format: biochemical; settings: for remaining activity at 71 µM: 71 µM (maximal concentration used), read-out: % residual activity of human AR
# T1 construct: made in house
# Protocol: The human recombinant AR, purified to electrophoretic homogeneity as described, was used as target enzyme. AR activity was determined at 37 °C as previously described by evaluating the decrease in absorbance at 340 nm linked to NADPH oxidation using a Biochrom Libra S60 spectrophotometer. The standard assay mixture contained 0.25 M sodium phosphate buffer pH 6.8, 0.18 mM NADPH, 0.42 M ammonium sulfate, 0.5 mM EDTA and 4.7 mM D,L-glyceraldehyde. One unit of enzyme activity is the amount that catalyses the conversion of 1 µmol of substrate/min in the above assay conditions. For AR inhibition studies, 0.8 mM L-idose was used as substrate in the conditions described above, in the presence of 10 mU of enzyme and of a final concentration of DMSO of 0.7% (v/v).
# [2] = target: T2, PTP1B (Homo sapiens, UniProt P18031); experiment: Determination of the mechanism of inhibition on PTP1B (KM, Vmax, Lineweaver-Burk, secondary plots); format: biochemical; settings: for α: Ki′ = αKi; for Ki′: from 1/Vmax versus inhibitor concentration (Ki′ = αKi); for Ki: from KM/Vmax versus inhibitor concentration
# T2 construct: human recombinant PTP1B (1–302)
# T2 sequence (P18031 1-302): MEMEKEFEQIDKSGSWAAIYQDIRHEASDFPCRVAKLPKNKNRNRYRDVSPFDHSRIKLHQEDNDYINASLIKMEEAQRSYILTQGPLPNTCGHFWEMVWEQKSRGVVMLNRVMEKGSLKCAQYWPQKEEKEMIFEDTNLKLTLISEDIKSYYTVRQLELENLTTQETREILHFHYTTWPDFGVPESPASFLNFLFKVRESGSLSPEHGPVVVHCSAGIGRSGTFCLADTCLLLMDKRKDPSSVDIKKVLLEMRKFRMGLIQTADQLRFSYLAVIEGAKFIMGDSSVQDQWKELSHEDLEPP
# Protocol: The inhibitory mechanism of tested compounds was determined studying the dependence between the main kinetics parameters (KM and Vmax) and the inhibitors concentrations. Briefly, KM and Vmax values were calculated measuring the hydrolysis rate of PTP1B in the absence/presence of different inhibitor concentrations, while increasing substrate content. Data obtained were fitted using Michaelis-Menten equation and a non-linear fitting software. Then, data were analysed using the double reciprocal plot (Lineweaver-Burk method).
# Figure 5 Kinetic characterization of 3 as PTP1B inhibitor. […] Dependence of main kinetic parameters KM (A) and Vmax (B) from the concentration of compound 3. Lineweaver-Burk plot (C). Bars represent the standard deviations of the means from at least three independent measurements (if not present, they are within the symbol’s size). […] E, free enzyme; S, substrate; ES, enzyme-substrate complex; EI, enzyme-inhibitor complex; ESI the enzyme-substrate-inhibitory ternary complex; Ks, dissociation constant of the enzyme-substrate complex; Ki, dissociation constant of EI complex; αKs and αKi, dissociation constant of enzyme-substrate-inhibitor complex (α > 1).
# Figure 6 Secondary plots. KM/Vmax (A) and 1/Vmax (B) versus the inhibitor concentration, respectively. The intercept of straight line with the “x” axis in Panel A, represents the Ki value, while the intercept of straight line with the “x” axis in Panel B represents the Ki′ value (Ki′ = αKi).
# Figure 7 Kinetic characterization of 8a as PTP1B inhibitor. […] Dependence of KM (A) and Vmax (B) from the inhibitor concentration. Lineweaver-Burk graph (C). Bars represent the standard deviations of the means from at least three independent measurements (if not present, they are within the symbol’s size). Secondary plots: KM/Vmax (D) and 1/Vmax (E) versus the inhibitor concentration, respectively. The intercept of straight line with the “x” axis in Figure D represents the Ki value, while the intercept of straight line with the “x” axis in Figure E represents the Ki′ value (Ki′ = αKi).
# [3] = test system: C2C12 cells; experiment: Glucose uptake assay (2-NBDG, flow cytometry); format: cell-based, murine; settings: 20 µM compound alone, 30 min, then 2-NBDG 3 h
# Protocol: To evaluate glucose uptake, C2C12 cells were grown until 80% confluence and then incubated in starvation medium for 24 h. After this time, cells were stimulated with 10 nM insulin (Humalog Lispro, Eli Lilly), 20 µM compound 3 or 3-insulin combination for 30 min and then incubated in the presence of 40 µM of 2-NBDG (Invitrogen) for 3 h. Then, cells were washed with PBS, tripsinized, pelleted by centrifugation (1000× g for 5 min), then suspended in 500 µL of PBS. The amount of 2-NBDG uploaded by cells was determined analysing cells by using a flow cytometer apparatus (FACSCanto II, BD Biosciences, San Jose, CA, USA). For each sample 1 × 10^4 events were acquired. Data obtained were then analysed with FlowJo software. Cells autofluorescence values were determined before sample analysis and subtracted to each sample.
# Figure 13 Glucose uptake assay. C2C12 cells were treated with 10 nM insulin, 20 µM compound 3 or 3-insulin combination and then incubated in the presence of 2-NBDG for 3 h. After that, the glucose uptake was analysed by flow cytometry analysis. Each test was carried out in quadruplicate. For each test, 10,000 events at least were analysed. (A), quantification of the mean fluorescence values of C2C12 cells. Data represents the mean value ± SD (n = 4). […] (B), representative cell fluorescence distribution obtained by analysing data with the FlowJo software. […]
# [4] = test system: GST–PTP1B fusion protein; parameters: method as in PMID 27064611; settings: different pH value, read-out: IC50 on PTP1B previously determined; cited from earlier work
AR inhibition (in words) [1],remaining activity at 71 µM [1],Inhibitory mechanism on PTP1B [2],α [2],Ki′ [2],Ki [2],Structure (SMILES),Glucose uptake (2-NBDG) [3],IC50 [4]
ineffective,82 ± 3%,linear mixed-type inhibitor,1.4 ± 0.2,9.4 ± 0.6 µM,6.6 ± 0.8 µM,CCCCCCCCCCCCCCC(OP(=O)(O)O)C(O)CCCO (stereo not shown) [Compound 3],incorporated more glucose than insulin-stimulated C2C12 cells,24 ± 7 µM
,87 ± 2%,mixed type inhibitor,1.6 ± 0.1,5.4 ± 0.2 µM,3.3 ± 0.4 µM,CCCCC[C@@H](OP(=O)(O)O)[C@@H](O)CC[C@H](CCCC)OC(C)=O (relative stereo) [Compound 8a],,
